This is an account of results in patent US8916702B2 (priority 2012, dated 2014).

The test deals with HCV pseudoparticles (genotype 1a HCV E1 and E2 envelope, H77C isolate). The test can be described thus: microbe, parasite or virus in culture. It counts as cell-based. As to conditions: Hepatitis C virus.
Where [1] appears, read: Huh-7, read-out: Activity (EC50 class), HCV pseudoparticles (genotype 1a, H77C) in Huh7 cells, EC50 expressed as class A/B.
[2] abbreviates: Huh-7, 48 h, read-out: Activity (EC50 class), HCV pseudoparticles, Huh7 cells, luciferase 2 days after infection, average of duplicates.
[3] abbreviates: Huh-7, 48 h, read-out: Activity (EC50 class), HCV pseudoparticle infection of Huh7 cells, luciferase 2 days after infection, EC50 expressed as class A/B.
[4] abbreviates: Huh-7, 48 h, HCV pseudoparticles (genotype 1a, H77C) in Huh7 cells, average of duplicate, luciferase 2 days after infection.

Where two headings read alike, the source gives them in different places.

By EC50 is commonly meant the concentration at which the effect is half-maximal. Take `COC(=O)[C@H](CNC(=O)C(=O)Nc1ccc(-c2cnco2)cc1)NC(=O)c1ccc(Nc2nc(NC3(c4ccc(Cl)cc4)CC3)nc(OCC(F)(F)F)n2)cc1` [Compound 3093]: the EC50 under setting [1] was in the range of 0.01 to 10 nM.

On to `Cc1csc(-c2cccc(NC(=O)C(=O)NC[C@H](NC(=O)c3ccc(Nc4nc(NC5(c6ccc(Cl)cc6)CC5)nc(OCC(F)(F)F)n4)cc3)C(=O)Cl)c2)n1` [Compound 3780], for which the EC50 under setting [2] lay within 0.01 to 10 nM.

On to `COc1ccc(CNC(=O)C(=O)NCC[C@H](NC(=O)c2ccc(Nc3nc(NC4(c5ccc(Cl)cc5)CC4)nc(OCC(F)(F)F)n3)cc2)C(=O)O)c(OC)c1` [Compound 1194], for which the EC50 under setting [3] lay in the range of 0.01 to 10 nM.

For `Cc1ccc2nc(NC(=O)C(=O)NCC(C)(C)CNC(=O)c3ccc(Nc4nc(NC5(c6ccc(Cl)cc6)CC5)nc(OCC(F)(F)F)n4)cc3)sc2c1` [Compound 3826], the EC50 under setting [2] lay within 0.01 to 10 nM.

As to `O=C(NC/C(=N/C(=O)c1ccc(Nc2nc(NC3(c4ccc(Cl)cc4)CC3)nc(OCC(F)(F)F)n2)cc1)C(=O)O)C(=O)Nc1ccc(OCC(F)(F)F)cc1` [Compound 3164], the EC50 by setting is: under setting [4], 0.68 nM; under setting [1], 0.01 to 10 nM.

For the compound `COC(=O)[C@@H](CCNC(=O)C(O)NCC1CC1c1cccc(F)c1)NC(=O)c1ccc(Nc2nc(NC3(c4ccc(Cl)cc4)CC3)nc(OCC(F)(F)F)n2)cc1` (stereo partly shown) [Compound 1376], the EC50 under setting [3] lay in the range of 0.01 to 10 nM.

`CC(C)(CNC(=O)C(=O)Nc1nc2cc(O)ccc2s1)CNC(=O)c1ccc(Nc2nc(NC3(c4ccc(Cl)cc4)CC3)nc(OCC(F)(F)F)n2)cc1` [Compound 3801]: the EC50 under setting [2] lay in the range of 0.01 to 10 nM.

As to `CC(C)(CNC(=O)C(=O)Nc1nc2c(F)cccc2s1)CNC(=O)c1ccc(Nc2nc(NC3(c4ccc(Cl)cc4)CC3)nc(OCC(F)(F)F)n2)cc1` [Compound 3824], a half-maximal response (Huh-7, 48 h, HCV pseudoparticles, Huh7 cells, luciferase 2 days after infection, average of duplicates) (EC50) required 0.077 nM and the EC50 under setting [2] fell in the range of 0.01 to 10 nM.

Consider `Cc1nccn1Cc1ccc(NC(=O)C(=O)NC[C@H](NC(=O)c2ccc(Nc3nc(NC4(c5ccc(Cl)cc5)CC4)nc(OCC(F)(F)F)n3)cc2)C(=O)O)cc1` [Compound 3287], for which the EC50 under setting [1] was in the range of 0.01 to 10 nM.

Consider `CC(C)(CNC(=O)C(=O)Nc1ccc(-c2nn[nH]n2)cc1)CNC(=O)c1ccc(Nc2nc(NC3(c4ccc(Cl)cc4)CC3)nc(OCC(F)(F)F)n2)cc1` [Compound 1495], for which the EC50 under setting [3] lay within 0.01 to 10 nM.

On to `O=C(NCC[C@H](NC(=O)c1ccc(Nc2nc(NC3(c4ccc(Cl)cc4)CC3)nc(OCC(F)(F)F)n2)cc1)C(=O)O)C(=O)N[C@H]1C[C@H]1c1ccccc1` [Compound 1338], for which the EC50 under setting [3] was in the range of 0.01 to 10 nM.

As for `O=C(NCC[C@H](NC(=O)c1ccc(Nc2nc(NC3(c4ccc(Cl)cc4)CC3)nc(OCC(F)(F)F)n2)cc1)C(=O)O)C(=O)Nc1cccc(-n2cnnc2)c1` [Compound 3653], under setting [2], the EC50 lay within 0.01 to 10 nM.

As to `CC(C)(C)OC(=O)NC1CCC(CNC(=O)C(=O)NCC[C@H](NC(=O)c2ccc(Nc3nc(NC4(c5ccc(Cl)cc5)CC4)nc(OCC(F)(F)F)n3)cc2)C(=O)O)CC1` (stereo partly shown) [Compound 1210], under setting [3], the EC50 was 0.01 to 10 nM.

In the case of `C[C@]12C3C1[C@H]3C[C@@H]2NC(=O)C(=O)NCC[C@H](NC(=O)c1ccc(Nc2nc(NC3(c4ccc(Cl)cc4)CC3)nc(OCC(F)(F)F)n2)cc1)C(=O)O` (stereo partly shown) [Compound 1117], the EC50 under setting [3] was in the range of 0.01 to 10 nM.

For the compound `COC(=O)[C@H](CNC(=O)C(=O)NC1Cc2ccccc2C1)NC(=O)c1ccc(Nc2nc(NC3(c4ccc(Cl)cc4)CC3)nc(OCC(F)(F)F)n2)cc1` [Compound 1291], the EC50 under setting [3] was in the range of 0.01 to 10 nM.

For `CC(C)(CNC(=O)C(=O)Nc1cccc2c1-c1ccccc1C2=O)CNC(=O)c1ccc(Nc2nc(NC3(c4ccc(Cl)cc4)CC3)nc(OCC(F)(F)F)n2)cc1` [Compound 3344], under setting [1], the EC50 was in the range of 0.01 to 10 nM.

On to `O=C1CC(NC(=O)C(=O)NC[C@H](NC(=O)c2ccc(Nc3nc(NC4(c5ccc(Cl)cc5)CC4)nc(OCC(F)(F)F)n3)cc2)C(=O)O)CCN1` (stereo partly shown) [Compound 1082], for which, under setting [3], the EC50 lay in the range of 0.01 to 10 nM.

Take `COc1ccccc1CCNC(=O)C(=O)NC[C@H](NC(=O)c1ccc(Nc2nc(NC3(c4ccc(Cl)cc4)CC3)nc(OCC(F)(F)F)n2)cc1)C(=O)O` [Compound 1397]: the EC50 under setting [3] is 0.01 to 10 nM.

Consider `COC(=O)[C@H](CNC(=O)C(=O)Nc1ccc(Cl)nc1)NC(=O)c1ccc(Nc2nc(NC3(c4ccc(Cl)cc4)CC3)nc(OCC(F)(F)F)n2)cc1` [Compound 3683], for which, under setting [2], the concentration giving a half-maximal response (EC50) lay in the range of 0.01 to 10 nM.

In the case of `Cn1ccc(NC(=O)C(=O)NCC(C)(C)CNC(=O)c2ccc(Nc3nc(NC4(c5ccc(Cl)cc5)CC4)nc(OCC(F)(F)F)n3)cc2F)n1` [Compound 3567], the EC50 is 0.035 nM under setting [4] and 0.01 to 10 nM under setting [1].

As to `CN(C)C(=O)C(=O)NCC[C@H](NC(=O)c1ccc(Nc2nc(NC3(c4ccc(Cl)cc4)CC3)nc(OCC(F)(F)F)n2)cc1)C(=O)O` [Compound 1015, (S)-2-(4-(4-(1-(4-chlorophenyl)cyclopropylamino)-6-(2,2,2-trifluoroethoxy)-1,3,5-triazin-2-ylamino)benzamido)-4-(2-(dimethylamino)-2-oxoacetamido)butanoic acid], the EC50 under setting [3] is 0.01 to 10 nM.

On to `O=C(NCCn1cccn1)C(=O)NC[C@H](NC(=O)c1ccc(Nc2nc(NC3(c4ccc(Cl)cc4)CC3)nc(OCC(F)(F)F)n2)cc1)C(=O)O` [Compound 1411], for which the EC50 under setting [3] is 0.01 to 10 nM.

In the case of `Cc1ccc(NC(=O)C(=O)NCC(C)(C)CNC(=O)c2ccc(Nc3nc(NC4(c5ccc(Cl)cc5)CC4)nc(OCC(F)(F)F)n3)cc2-n2nnnc2C)cc1` [Compound 3518], the EC50 reads like this: under setting [4], 0.097 nM; under setting [1], 0.01 to 10 nM.

`COc1ccc(CNC(=O)C(=O)NC[C@H](NC(=O)c2ccc(Nc3nc(NC4(c5ccc(Cl)cc5)CC4)nc(OCC(F)(F)F)n3)cc2)C(=O)O)cc1OC` [Compound 1176]: the EC50 under setting [3] lay within 0.01 to 10 nM.

In the case of `CC(C)(CNC(=O)C(=O)Nc1ccnn1-c1ccccc1)CNC(=O)c1ccc(Nc2nc(NC3(c4ccc(Cl)cc4)CC3)nc(OCC(F)(F)F)n2)cc1` [Compound 3029], it took 0.071 nM to reach a half-maximal effect under setting [4] (EC50) and the EC50 under setting [1] was 0.01 to 10 nM.

Regarding `COC(=O)[C@H](CNC(=O)C(=O)Nc1ccc(-c2nncn2C)cc1)NC(=O)c1ccc(Nc2nc(NC3(c4ccc(Cl)cc4)CC3)nc(OCC(F)(F)F)n2)cc1` [Compound 3200], the EC50 under setting [1] was 0.01 to 10 nM.

With `CC(C)c1ccc(NC(=O)C(=O)NC[C@H](NC(=O)c2ccc(Nc3nc(NC4(c5ccc(Cl)cc5)CC4)nc(OCC(F)(F)F)n3)cc2)C(=O)O)cc1` [Compound 3295], the EC50 under setting [1] fell in the range of 0.01 to 10 nM.

For the compound `CCC(CC)CNC(=O)C(=O)NC[C@H](NC(=O)c1ccc(Nc2nc(NC3(c4ccc(Cl)cc4)CC3)nc(OCC(F)(F)F)n2)cc1)C(=O)OC` [Compound 1454], under setting [3], the EC50 lay within 0.01 to 10 nM.

As for `COC(=O)[C@H](CCNC(=O)C(=O)Nc1ccc(N2CCN(Cc3ccccc3)CC2)cc1)NC(=O)c1ccc(Nc2nc(NC3(c4ccc(Cl)cc4)CC3)nc(OCC(F)(F)F)n2)cc1` [Compound 3131], under setting [1], the EC50 lay within 0.01 to 10 nM.

Turning to `COC(=O)[C@H](CCNC(=O)C(=O)NCC1OCCc2ccccc21)NC(=O)c1ccc(Nc2nc(NC3(c4ccc(Cl)cc4)CC3)nc(OCC(F)(F)F)n2)cc1` (stereo partly shown) [Compound 1320], under setting [3], the EC50 lay in the range of 0.01 to 10 nM.

As for `O=C(NCC[C@H](NC(=O)c1ccc(Nc2nc(NC3(c4ccc(Cl)cc4)CC3)nc(OCC(F)(F)F)n2)cc1)C(=O)O)C(=O)Nc1ccc(N2CCN(Cc3ccccc3)CC2)cc1` [Compound 3232], the EC50 under setting [1] fell in the range of 0.01 to 10 nM.

As to `COC(=O)[C@H](CNC(=O)C(=O)Nc1cccc(-c2cnco2)c1)NC(=O)c1ccc(Nc2nc(NC3(c4ccc(Cl)cc4)CC3)nc(OCC(F)(F)F)n2)cc1` [Compound 3696], the EC50 under setting [2] was in the range of 0.01 to 10 nM.

With `COc1ccc(C(NC(=O)C(=O)NCC[C@H](NC(=O)c2ccc(Nc3nc(NC4(c5ccc(Cl)cc5)CC4)nc(OCC(F)(F)F)n3)cc2)C(=O)O)C2CC2)cc1` (stereo partly shown) [Compound 1437], the EC50 under setting [3] lay within 0.01 to 10 nM.

`CC(C)(CNC(=O)C(=O)NC1CCCCC1)CNC(=O)c1ccc(Nc2nc(NC3(c4ccc(Cl)cc4)CC3)nc(OCC(F)(F)F)n2)cc1` [Compound 1544]: the EC50 is, setting by setting: (Huh-7, 48 h, HCV pseudoparticle infection of Huh7 cells, luciferase 2 days after infection, average of duplicates) 0.08 nM; under setting [3], 0.01 to 10 nM.

With `O=C(NCC[C@H](NC(=O)c1ccc(Nc2nc(NC3(c4ccc(Cl)cc4)CC3)nc(OCC(F)(F)F)n2)cc1)C(=O)O)C(=O)NCC1(CN2CCOCC2)CC1` [Compound 1426], under setting [3], the EC50 is 0.01 to 10 nM.

With `CC1CCCCC1NC(=O)C(=O)NCC[C@H](NC(=O)c1ccc(Nc2nc(NC3(c4ccc(Cl)cc4)CC3)nc(OCC(F)(F)F)n2)cc1)C(=O)O` (stereo partly shown) [Compound 1124], the EC50 under setting [3] lay within 0.01 to 10 nM.

For `CC(C)(C)C1CCC(NC(=O)C(=O)NCC[C@H](NC(=O)c2ccc(Nc3nc(NC4(c5ccc(Cl)cc5)CC4)nc(OCC(F)(F)F)n3)cc2)C(=O)O)CC1` (stereo partly shown) [Compound 1128], under setting [3], the EC50 was in the range of 0.01 to 10 nM.

Take `Nc1ccc(NC(=O)C(=O)NCC[C@H](NC(=O)c2ccc(Nc3nc(NC4(c5ccc(Cl)cc5)CC4)nc(OCC(F)(F)F)n3)cc2)C(=O)O)cn1` [Compound 3630]: the EC50 under setting [2] fell in the range of 0.01 to 10 nM.

Consider `COc1cc(C)ccc1NC(=O)C(=O)NCC(C)(C)CNC(=O)c1ccc(Nc2nc(NC3(c4ccc(Cl)cc4)CC3)nc(OCC(F)(F)F)n2)cc1` [Compound 3070], for which the EC50 under setting [1] was 0.01 to 10 nM.

Turning to `COC(=O)[C@H](CNC(=O)C(=O)Nc1cccc(-c2ccc(Cl)cc2)c1)NC(=O)c1ccc(Nc2nc(NC3(c4ccc(Cl)cc4)CC3)nc(OCC(F)(F)F)n2)cc1` [Compound 3720], the EC50 under setting [2] is 0.01 to 10 nM.

As to `CC(C)(CNC(=O)C(=O)Nc1ccc(CC(=O)O)cc1)CNC(=O)c1ccc(Nc2nc(NC3(c4ccc(Cl)cc4)CC3)nc(OCC(F)(F)F)n2)cc1` [Compound 1481], the EC50 under setting [3] is 0.01 to 10 nM.

`CCC(CC)NC(=O)C(=O)NCCC(NC(=O)c1ccc(Nc2nc(NC3(c4ccc(Cl)cc4)CC3)nc(OCC(F)(F)F)n2)cc1)C(=O)OC` (stereo not shown) [Compound 1106]: the EC50 under setting [3] fell in the range of 0.01 to 10 nM.

For `CC(C)(CNC(=O)C(=O)Nc1cccc(CC(=O)O)c1)CNC(=O)c1ccc(Nc2nc(NC3(c4ccc(Cl)cc4)CC3)nc(OCC(F)(F)F)n2)cc1` [Compound 1480], under setting [3], the EC50 was 0.01 to 10 nM.
